Test systems include UO-31 renal; K-562 leukemia; MALME-3M melanoma; NCI-H522 lung; NCI/ADR-RES ovarian; HL-60(TB) leukemia; 786-0 renal; CCRF-CEM leukemia; SNB-19 CNS; MCF7 breast.
Assay in all cases: growth of human tumour cells (NCI), 48 h

“And” between values parts separate entries of the source, which are not always exact repeats. Equal values may be shown once.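 Test compounds were applied to cells in 96-well plates for 48 hours at 5 doses. GI50 is the concentration that inhibits growth by half. TGI: concentration producing complete growth inhibition.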

As for `CCOC(=O)C1=C(C)NC2SC(=O)/C(=C\c3cccc(Cl)c3)N2C1c1ccccc1` (stereo unspecified), the GI50 is more than 100 µM in the assay on UO-31 renal; more than 100 µM in the assay on K-562 leukemia; 28.3 µM in the assay with MALME-3M melanoma; more than 100 µM with NCI-H522 lung; more than 100 µM in the assay with NCI/ADR-RES ovarian; more than 100 µM in the assay on HL-60(TB) leukemia. Besides, the GI50 with 786-0 renal was more than 100 µM; in the assay with CCRF-CEM leukemia it was more than 100 µM; in the assay with SNB-19 CNS, more than 100 µM; in the assay with MCF7 breast, 31.2 µM. Further, the TGI with UO-31 renal, in the assay with K-562 leukemia, in the assay on MALME-3M melanoma, in the assay with NCI-H522 lung, with NCI/ADR-RES ovarian and in the assay with HL-60(TB) leukemia was more than 100 µM throughout. Moreover, the TGI with 786-0 renal, with CCRF-CEM leukemia, in the assay on SNB-19 CNS and in the assay on MCF7 breast was more than 100 µM in each case.

`CCCCCCCCCCCCCCCC(=O)NS(=O)(=O)OC[C@H]1O[C@@H](n2cnc3c(N)ncnc32)[C@H](O)[C@@H]1O`: the GI50 in the assay on UO-31 renal is 0.339 µM; in the assay on K-562 leukemia it was 1.65 µM; in the assay with MALME-3M melanoma it was 0.69 µM; in the assay with NCI-H522 lung it was 0.0479 µM; in the assay on NCI/ADR-RES ovarian, 0.0917 µM; in the assay with HL-60(TB) leukemia, 0.454 µM. In addition, the GI50 is less than 0.0491 µM with 786-0 renal, 0.0191 µM in the assay with SNB-19 CNS and 0.509 µM in the assay with MCF7 breast. The TGI was found to be 1.33 µM in the assay on UO-31 renal; 10 µM in the assay on K-562 leukemia; 2.22 µM in the assay on MALME-3M melanoma; 0.427 µM in the assay on NCI-H522 lung; 3.55 µM with NCI/ADR-RES ovarian; 4.72 µM in the assay on HL-60(TB) leukemia. Also, the TGI in the assay with CCRF-CEM leukemia was 10.6 µM; in the assay with SNB-19 CNS it was 0.157 µM; in the assay on MCF7 breast it was 9.77 µM.

Regarding `O=C1/C(=C/c2ccc(Cl)cc2)CN(Cc2cn(CCCNc3ccnc4cc(Cl)ccc34)nn2)C/C1=C\c1ccc(Cl)cc1`, the GI50 with UO-31 renal was 1.16 µM; with K-562 leukemia it was 0.289 µM; with MALME-3M melanoma it was 1.71 µM; with NCI-H522 lung it was 1.61 µM; with NCI/ADR-RES ovarian it was 1.65 µM; in the assay with HL-60(TB) leukemia, 0.809 µM. In addition, the GI50 in the assay on 786-0 renal was 0.754 µM; with CCRF-CEM leukemia, 0.426 µM; in the assay on SNB-19 CNS, 0.643 µM; in the assay on MCF7 breast, 0.362 µM. Also, the TGI in the assay with UO-31 renal turned out to be 2.45 µM; in the assay with K-562 leukemia, 3.79 µM; in the assay with MALME-3M melanoma, 3.28 µM; in the assay with NCI-H522 lung it was 3.17 µM; in the assay with NCI/ADR-RES ovarian, 6.51 µM; in the assay with HL-60(TB) leukemia it was 3.33 µM. In addition, the TGI in the assay with 786-0 renal is 2.06 µM; with CCRF-CEM leukemia it was more than 20.5 µM; in the assay with SNB-19 CNS, 1.86 µM; with MCF7 breast, 1.46 µM.

For the molecule `O=S(=O)(NCCNc1nccc(-c2c(-c3ccc(F)cc3)nc3sccn23)n1)c1ccc(O)cc1`, the GI50 was 2.39 µM in the assay on UO-31 renal; 2.18 µM with K-562 leukemia; 3.92 µM with MALME-3M melanoma; 3.51 µM with NCI-H522 lung; 19.5 µM with NCI/ADR-RES ovarian; 4.93 µM with HL-60(TB) leukemia. The GI50 is 4.26 µM in the assay with 786-0 renal, 2 µM in the assay on CCRF-CEM leukemia, 12.5 µM in the assay with SNB-19 CNS and 0.476 µM in the assay with MCF7 breast. The TGI with UO-31 renal was 16.7 µM; in the assay with K-562 leukemia, more than 100 µM; in the assay with MALME-3M melanoma, 21.5 µM; in the assay with NCI-H522 lung, 19.2 µM; in the assay with NCI/ADR-RES ovarian, more than 100 µM; in the assay with HL-60(TB) leukemia, 30.5 µM. Moreover, the TGI is 39.7 µM with 786-0 renal, 29.8 µM in the assay with CCRF-CEM leukemia, more than 100 µM in the assay with SNB-19 CNS and 14.4 µM in the assay with MCF7 breast.

As to `CC[C@]12C=CCN3CC[C@]4(C(=C(C(=O)OC)C1)Nc1cc5c(cc14)[C@@H]1[C@H](O5)[C@@H](O)[C@@]4(CC)CC(C(=O)OC)=C5Nc6ccccc6[C@@]56CCN1[C@@H]46)[C@@H]32`, the GI50 is 0.0951 µM and 0.127 µM with UO-31 renal; 0.129 µM and 0.276 µM in the assay on K-562 leukemia; 0.412 µM and 0.431 µM in the assay on MALME-3M melanoma; 0.202 µM and 0.312 µM with NCI-H522 lung; 0.825 µM and 0.714 µM in the assay on NCI/ADR-RES ovarian; 0.134 µM and 0.269 µM in the assay with HL-60(TB) leukemia. Also, the GI50 in the assay with 786-0 renal was 0.252 µM and 0.383 µM; in the assay with CCRF-CEM leukemia it was 0.238 µM and 0.345 µM; in the assay with SNB-19 CNS, 0.644 µM and 0.592 µM; with MCF7 breast, 0.144 µM and 0.275 µM. In addition, the TGI was 3.31 µM and 6.25 µM with UO-31 renal; 3.45 µM and 15.2 µM with MALME-3M melanoma; 2.75 µM and 5.33 µM in the assay on NCI-H522 lung; 25 µM and > 100 µM with NCI/ADR-RES ovarian; 9.05 µM and 1.91 µM in the assay with HL-60(TB) leukemia; 10 µM and 33.6 µM with 786-0 renal. The TGI in the assay on CCRF-CEM leukemia was 25 µM and > 100 µM; in the assay on SNB-19 CNS it was 25 µM and 42.1 µM; with MCF7 breast, 25 µM and 26.6 µM.

For `C=C(C(=O)c1ccccc1)C(NC(C)(C)C)c1ccccc1` (stereo unspecified), the GI50 in the assay on UO-31 renal is 1.38 µM; with K-562 leukemia, 1.91 µM; with MALME-3M melanoma, 1.91 µM; in the assay with NCI-H522 lung it was 0.308 µM; with NCI/ADR-RES ovarian, 2.63 µM; with HL-60(TB) leukemia, 2.03 µM. The GI50 in the assay on 786-0 renal is 2.06 µM; in the assay with CCRF-CEM leukemia, 0.629 µM; in the assay with SNB-19 CNS it was 4.2 µM; in the assay on MCF7 breast, 1.06 µM. In addition, the TGI in the assay with UO-31 renal was 2.85 µM; with K-562 leukemia it was 11.5 µM; in the assay with MALME-3M melanoma, 4.33 µM; with NCI-H522 lung it was 1.53 µM; with NCI/ADR-RES ovarian it was 12.4 µM; in the assay with HL-60(TB) leukemia, 7.82 µM. For the same molecule, the TGI came to 4.08 µM in the assay on 786-0 renal, 43.7 µM in the assay on CCRF-CEM leukemia, 16 µM in the assay with SNB-19 CNS and 8.21 µM in the assay with MCF7 breast.

Take `CCCCCCCCCCCCC(O)C1CCC(C(O)CCCCC(O)CCCCCC2CC(CC(C)=O)C(=O)O2)O1` (stereo unspecified): the GI50 is 1.06 µM with UO-31 renal, 1.35 µM in the assay on K-562 leukemia, 1.29 µM in the assay on HL-60(TB) leukemia and 3.91 µM in the assay on 786-0 renal. In addition, the TGI in the assay on UO-31 renal is 3.81 µM and 14 µM; with K-562 leukemia, 7.7 µM; in the assay with MALME-3M melanoma it was 16.5 µM; in the assay on NCI-H522 lung it was 19.9 µM; with NCI/ADR-RES ovarian it was 2.3 µM; in the assay with HL-60(TB) leukemia, 4.02 µM and 2.75 µM. Also, the TGI in the assay with 786-0 renal is 19.7 µM; with CCRF-CEM leukemia, 5.6 µM and 8.12 µM; in the assay with SNB-19 CNS, 15.3 µM; with MCF7 breast, 3.82 µM.

The values are drawn from PubChem BioAssay (NCI).
